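Following 48 hours of exposure in 96-well plates, responses at five concentrations were used to interpolate endpoints linearly. GI50 marks 50% less growth.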 Activity calls are given as the source filed them. Rule as the data show it: active = GI50 up to about 1.1 µM and inactive = higher.
How the values were obtained:
Test in all cases: inhibition of tumour cell growth, NCI panel, 48 h
A549 = tested on: A549
CAKI-1 = tested on: CAKI-1
COLO 205 = tested on: COLO 205
HL-60 = tested on: HL-60
HOP-62 = tested on: HOP-62
HT-29 = tested on: HT-29
MOLT-4 = tested on: MOLT-4
Malme-3M = tested on: Malme-3M
NCI-H226 = tested on: NCI-H226
NCI-H522 = tested on: NCI-H522
OVCAR-8 = tested on: OVCAR-8
RPMI-8226 = tested on: RPMI-8226
RXF 393 = tested on: RXF 393
SF-539 = tested on: SF-539
SK-MEL-28 = tested on: SK-MEL-28
SN12C = tested on: SN12C
SNB-19 = tested on: SNB-19
SR = tested on: SR
T47D = tested on: T47D
UO-31 = tested on: UO-31

| Compound | GI50 (A549) | GI50 (CAKI-1) | GI50 (COLO 205) | GI50 (HL-60) | GI50 (HOP-62) | GI50 (HT-29) | GI50 (MOLT-4) | GI50 (Malme-3M) | GI50 (NCI-H226) | GI50 (NCI-H522) | GI50 (OVCAR-8) | GI50 (RPMI-8226) | GI50 (RXF 393) | GI50 (SF-539) | GI50 (SK-MEL-28) | GI50 (SN12C) | GI50 (SNB-19) | GI50 (SR) | GI50 (T47D) | GI50 (UO-31) |
| --- | --- | --- | --- | --- | --- | --- | --- | --- | --- | --- | --- | --- | --- | --- | --- | --- | --- | --- | --- | --- |
| N#CC(NCCO)=C1C(=O)c2ccccc2C1=O | > 100 µM (inactive) | > 100 µM (inactive) | > 100 µM (inactive) | > 100 µM (inactive) | > 100 µM (inactive) | > 100 µM (inactive) | > 100 µM (inactive) | > 100 µM (inactive) | > 100 µM (inactive) | > 100 µM (inactive) | > 100 µM (inactive) | > 100 µM (inactive) | > 100 µM (inactive) | > 100 µM (inactive) | > 100 µM (inactive) | > 100 µM (inactive) | > 100 µM (inactive) | > 100 µM (inactive) | > 100 µM (inactive) | > 100 µM (inactive) |
| O=C1/C(=C/c2ccccc2)CN(C(=O)CCN2CCOCC2)C/C1=C\c1ccccc1 | 7.16 µM (inactive) | 10.1 µM (inactive) | 2.74 µM (inactive) | 1.32 µM (inactive) | 8.45 µM (inactive) | 1.95 µM (inactive) | 2.58 µM (inactive) | 2.49 µM (inactive) | 5.89 µM (inactive) | 2.01 µM (inactive) | 2.99 µM (inactive) | 0.519 µM (active) | 4.38 µM (inactive) | 2.06 µM (inactive) | 1.86 µM (inactive) | 2.18 µM (inactive) | 5.45 µM (inactive) | 1.06 µM (active) | 3.34 µM (inactive) | 8.97 µM (inactive) |
| N=C(N)N/N=C/c1c(-c2ccc([N+](=O)[O-])cc2)nc2sccn12 | 1.78 µM (inactive) | 2.43 µM (inactive) | 0.676 µM (active) | 2.38 µM (inactive) | 1.67 µM (inactive) | 1.53 µM (inactive) | 1.53 µM (inactive) | 1.95 µM (inactive) | 1.75 µM (inactive) | 2 µM (inactive) | 2.12 µM (inactive) | 5.27 µM (inactive) | 2.55 µM (inactive) | 1.77 µM (inactive) | 1.94 µM (inactive) | 1.77 µM (inactive) | 1.38 µM (inactive) | 1.73 µM (inactive) | 1.74 µM (inactive) | 2.34 µM (inactive) |
| OC1[C@H](O)CN(OCc2ccccc2)C[C@@H]1O (stereo not given in full) | > 100 µM (inactive) | > 100 µM (inactive) | > 100 µM (inactive) | > 100 µM (inactive) | > 100 µM (inactive) | > 100 µM (inactive) | > 100 µM (inactive) | > 100 µM (inactive) | > 100 µM (inactive) | > 100 µM (inactive) | > 100 µM (inactive) | > 100 µM (inactive) | > 100 µM (inactive) | > 100 µM (inactive) | > 100 µM (inactive) | > 100 µM (inactive) | > 100 µM (inactive) | > 100 µM (inactive) | > 100 µM (inactive) | > 100 µM (inactive) |
| CC1OC(OCC2OC(Oc3ccc(C4CC(=O)c5c(O)cc(O)cc5O4)cc3O)C(O)C(O)C2O)C(O)C(O)C1O (stereo not given) | > 100 µM (inactive) | > 100 µM (inactive) | > 100 µM (inactive) | > 100 µM (inactive) | > 100 µM (inactive) | > 100 µM (inactive) | > 100 µM (inactive) | > 100 µM (inactive) | > 100 µM (inactive) | > 100 µM (inactive) | > 100 µM (inactive) | > 100 µM (inactive) | > 100 µM (inactive) | > 100 µM (inactive) | > 100 µM (inactive) | > 100 µM (inactive) | > 100 µM (inactive) | > 100 µM (inactive) | > 100 µM (inactive) | > 100 µM (inactive) |
| COc1cc(C2c3cc4c(cc3OC(O)C2C)OCO4)cc(OC)c1O (stereo not given) | 7.64 µM (inactive) | 8.79 µM (inactive) | 18.2 µM (inactive) | 2.92 µM (inactive) | 10.7 µM (inactive) | 4.7 µM (inactive) | 4.45 µM (inactive) | 3.86 µM (inactive) | 17 µM (inactive) | 2.12 µM (inactive) | 16.6 µM (inactive) | 7.4 µM (inactive) | 7.35 µM (inactive) | 6.28 µM (inactive) | 28.7 µM (inactive) | 11.8 µM (inactive) | 11.6 µM (inactive) | 2.9 µM (inactive) | 7.64 µM (inactive) | 21.3 µM (inactive) |
| O=C(O)C(C1NCCS1)N1C(=O)c2ccccc2C1=O (stereo not given) | > 100 µM (inactive) | > 100 µM (inactive) | > 100 µM (inactive) | > 100 µM (inactive) | > 100 µM (inactive) | > 100 µM (inactive) | > 100 µM (inactive) | > 100 µM (inactive) | > 100 µM (inactive) | > 100 µM (inactive) | > 100 µM (inactive) | > 100 µM (inactive) | > 100 µM (inactive) | > 100 µM (inactive) | > 100 µM (inactive) | > 100 µM (inactive) | > 100 µM (inactive) | > 100 µM (inactive) | > 100 µM (inactive) | > 100 µM (inactive) |
| CC(=O)C1=C(C)N(c2ccccc2)C2(O)C3=C(C(=O)c4ccccc4C3=O)C(O)=CC12Cl (stereo not given) | 7.29 µM (inactive) | 4.05 µM (inactive) | 5.21 µM (inactive) | 2.9 µM (inactive) | 17.2 µM (inactive) | 3.1 µM (inactive) | 3.13 µM (inactive) | 1.88 µM (inactive) | 21.4 µM (inactive) | 2.55 µM (inactive) | 4.08 µM (inactive) | 0.855 µM (active) | 5.85 µM (inactive) | 4.09 µM (inactive) | 6.73 µM (inactive) | 4.46 µM (inactive) | 5.36 µM (inactive) | 2.42 µM (inactive) | 35.2 µM (inactive) | 5.07 µM (inactive) |
| CCN(CC)CCn1ccc(=O)c2cc3c(=O)ccn(CCN(CC)CC)c3c(C)c21 | 4.27 µM (inactive) | 7.4 µM (inactive) | 3.87 µM (inactive) | 1.42 µM (inactive) | 7.38 µM (inactive) | 2.81 µM (inactive) | 0.525 µM (active) | 15 µM (inactive) | 10.9 µM (inactive) | 6.37 µM (inactive) | 2.87 µM (inactive) | 2.1 µM (inactive) | 4.56 µM (inactive) | 11.2 µM (inactive) | 19.9 µM (inactive) | 5.65 µM (inactive) | 5.15 µM (inactive) | 1.26 µM (inactive) | 25.1 µM (inactive) | 5.07 µM (inactive) |
| CC(C)(C)OC(=O)c1ccc(NCC2=CC(=O)C=CC2=O)cc1 | 18.1 µM (inactive) | 1.48 µM (inactive) | 2.83 µM (inactive) | 1.03 µM (active) | 25.9 µM (inactive) | 17.3 µM (inactive) | 1.97 µM (inactive) | 2.89 µM (inactive) | 18.2 µM (inactive) | 1.63 µM (inactive) | 13 µM (inactive) | 2.48 µM (inactive) | 11.4 µM (inactive) | 5.52 µM (inactive) | 15.6 µM (inactive) | 11.4 µM (inactive) | 15.1 µM (inactive) | 2.47 µM (inactive) | 1.95 µM (inactive) | 7.11 µM (inactive) |
| O=C(NN1CCCCC1)c1cc2cc(CCl)ccc2oc1=O | 19.6 µM (inactive) | 18.1 µM (inactive) | 17.9 µM (inactive) | 16.5 µM (inactive) | 19.4 µM (inactive) | 14.9 µM (inactive) | 22.2 µM (inactive) | 10.5 µM (inactive) | 20.6 µM (inactive) | 8.75 µM (inactive) | 22.1 µM (inactive) | 24 µM (inactive) | 18.5 µM (inactive) | 27.4 µM (inactive) | 29.3 µM (inactive) | 18.4 µM (inactive) | 23.6 µM (inactive) | 21.2 µM (inactive) | 20.9 µM (inactive) | 18.5 µM (inactive) |
| CN1CCN(c2ccc3[nH]c(-c4ccc5[nH]c(-c6ccc(N(C)CCCl)cc6)nc5c4)nc3c2)CC1 | 0.286 µM (active) | 4.41 µM (inactive) | 0.17 µM (active) | < 0.01 µM (active) | 0.156 µM (active) | 0.217 µM (active) | 0.0127 µM (active) | 0.208 µM (active) | 0.705 µM (active) | 0.0163 µM (active) | 0.247 µM (active) | 1.62 µM (inactive) | 0.128 µM (active) | 0.109 µM (active) | 0.32 µM (active) | 0.0461 µM (active) | 0.0538 µM (active) | 0.0301 µM (active) | 0.174 µM (active) | 18.7 µM (inactive) |
| O=[N+]([O-])c1cc2oc(COc3ccccc3)nc2cc1Cl | 33.5 µM (inactive) | 22.7 µM (inactive) | 20.6 µM (inactive) | 38.1 µM (inactive) | 20.4 µM (inactive) | 32.5 µM (inactive) | 22.2 µM (inactive) | 33.7 µM (inactive) | 17 µM (inactive) | 18 µM (inactive) | 35.2 µM (inactive) | 23.7 µM (inactive) | 22.1 µM (inactive) | 19.1 µM (inactive) | 32.6 µM (inactive) | 24.7 µM (inactive) | 38.8 µM (inactive) | 29.4 µM (inactive) | 18.4 µM (inactive) | 27.2 µM (inactive) |
| CNc1ccc2c(c1)Cc1ccccc1-2 | 22.5 µM (inactive) | 30.6 µM (inactive) | 38.7 µM (inactive) | 20.3 µM (inactive) | 57.4 µM (inactive) | 30.3 µM (inactive) | 17 µM (inactive) | 37.9 µM (inactive) | 78 µM (inactive) | 21.9 µM (inactive) | 25.4 µM (inactive) | 38.8 µM (inactive) | 34.8 µM (inactive) | 32.4 µM (inactive) | 44.5 µM (inactive) | 43.8 µM (inactive) | 13.6 µM (inactive) | 27 µM (inactive) | 24.1 µM (inactive) | 31.1 µM (inactive) |

From ChEMBL document CHEMBL1201862, “PubChem BioAssay data set” (2004)
